Source: publication PMC5554444 (Cancer prevention research (Philadelphia, Pa.), 2011)
Values joined by “and” are separate entries in the source; they are usually repeats but may differ in a detail not shown here. Identical values can stand only once.

Columns and labels:
MCF7 cells [1] = assay: Cell cycle distribution by NIM-DAPI flow cytometry; format: cell-based, human; settings: 2.5 μM
human RXRα = target: T1, human RXRα (Homo sapiens, UniProt P19793); settings: COS-1 cells, 24 h
T1 sequence (P19793 1-462): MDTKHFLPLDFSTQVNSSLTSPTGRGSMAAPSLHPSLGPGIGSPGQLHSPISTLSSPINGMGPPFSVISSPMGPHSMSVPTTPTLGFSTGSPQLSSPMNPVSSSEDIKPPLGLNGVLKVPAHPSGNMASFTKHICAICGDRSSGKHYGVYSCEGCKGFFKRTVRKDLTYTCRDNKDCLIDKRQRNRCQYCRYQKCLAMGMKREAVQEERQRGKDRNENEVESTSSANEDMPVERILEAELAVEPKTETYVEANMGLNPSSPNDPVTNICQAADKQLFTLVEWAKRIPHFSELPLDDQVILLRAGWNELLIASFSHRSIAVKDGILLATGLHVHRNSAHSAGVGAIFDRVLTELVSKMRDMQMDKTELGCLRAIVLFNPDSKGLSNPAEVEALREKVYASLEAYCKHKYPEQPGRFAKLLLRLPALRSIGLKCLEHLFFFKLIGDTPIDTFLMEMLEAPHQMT

[2] = Caco-2 cell monolayer permeability; format: in vitro ADME; settings: human, Caco-2, pH 7.4
Caco-2 cell monolayer = Caco-2 cell monolayer permeability; format: in vitro ADME; settings: Caco-2
[3] = tested on: MNU-induced mammary tumors; assay: MNU-induced mammary tumor growth in Sprague-Dawley rats; format: in vivo, rat; settings: 10 mg/kg BW/day, six weeks, 10 rats/group, p = 0.1 Mann-Whitney
[4] = Absorption and distribution in rats after gavage; format: in vivo, rat; settings: 40 mg/kg by gavage, 3 h after first treatment, individual rats; listed as AM6-36
MCF7 cells [5] = assay: Western blot of p53 and p21 protein; format: cell-based, human; settings: 1 μM, 8, 24 and 48 h
MCF7 cells [6] = assay: RT2 Profiler PCR array of 84 human cell cycle genes; format: cell-based
HL-60 cells = assay: Expression of cell surface marker CD38 by flow cytometry; format: cell-based, human
MCF7 breast cancer cells = assay: SRB assay, anti-proliferative potential; format: cell-based; settings: Homo sapiens, MCF7, 72 h, read-out: SRB assay IC50

With `Cl.Cl.NCCCn1c2c(c3ccc(N)cc3c1=O)C(=O)c1ccccc1-2` [Compound 3, 3-amino-6-(3-aminopropyl)-5,6-dihydro-5,11-dioxo-11H-indeno[1,2-c]isoquinoline dihydrochloride] the Cell cycle distribution (MCF7 cells [1]) was “S phase arrest”, the “Relative luciferase activity induction” value (human RXRα; 20 μM) was 133.2 fold and the “RXRE assay, fold increase of relative luciferase activity over vehicle” value (human RXRα; 40 μM) was 5.49±0.34 fold. For the same molecule, the Papp A→B at 5 µM [2] was 27.5 ± 7.8 nm/s, the Papp A→B at 10 µM [2] was 55.2 ± 2.9 nm/s and the Papp A→B at 25 µM [2] was 44.5 ± 7.1 nm/s. The Papp B→A at 5 µM [2] was 39.5 ± 1.1 nm/s, the Papp B→A at 10 µM [2] was 32.5 ± 7.1 nm/s and the Papp B→A at 25 µM [2] was 82.6 ± 9.3 nm/s. For the same molecule, the “Papp AP to BL, times slower than propranolol” value (Caco-2 cell monolayer) was 10 fold, the “Growth of MNU-induced mammary tumors” value [3] was “clearly attenuated tumor growth” and the “Serum 1-day” value [4] was 0.84 ± 0.01 μg/ml and 2.14 μM and 0.82 ± 0.004 μg/ml and 2.09 μM. The p21 protein expression (MCF7 cells [5]) was “moderate increase at 8 h, and incremental expression was observed at 24 and 48 h”, the p53 protein level (MCF7 cells [5]) was “increase of p53 at 8 h, followed by decreases at 24 and 48 h” and the “Up-regulation of CDKN1A expression” value (MCF7 cells [6]; DNA microarray analysis) was 35 fold.

In the case of `CC1=C(/C=C/C(C)=C\C=C\C(C)=C\C(=O)O)C(C)(C)CCC1` [Compound 9-cis-RA, 9-cis-Retinoic acid], the “FL-1 positive cells (CD38)” value (HL-60 cells; HL-60 cells, 2 nM) is reported as 86.7% and the “CD38-expressing cell population (FL-1 positive)” value (HL-60 cells; HL-60 cells, 2000, 200, 20 nM) is reported as “about 95%”.

Work on `CC[C@@]1(O)C(=O)OCc2c1cc1n(c2=O)Cc2cc3ccccc3nc2-1` [Camptothecin] yielded an IC50 (MCF7 breast cancer cells) of 1.41 nM.

In the case of `C=C(c1ccc(C(=O)O)cc1)c1cc2c(cc1C)C(C)(C)CCC2(C)C` [Bexarotene, reference compound], the “Number of genes out of 84 with significantly altered expression” value (MCF7 cells [6]; 24 h, AM6-36 1 μM, bexarotene 100 μM, P <0.05) is reported as 9.
